Source: patent US11623925B2, “Processes for preparing a diaminopyrimidine derivative or acid addition salt thereof” (YUHAN CORPORATION, priority 2018, dated 2023)
Where a name gives a salt, the structure may show the parent alone.

Legend:
[1] = Stability tests: storage at 60° C. and 75% RH for 2 weeks, HPLC analysis; format: physicochemical; settings: for change in the HPLC purity / change in the amount of deacetylated impurities: 2 weeks, in words
Protocol: (S)-N-(1-(2-((4-amino-3-nitrophenyl)amino)-6-propylpyrimidin-4-yl)pyrrolidin-3-yl) acetamide hydrochloride prepared according to WO 2012/115480 (Amorphous form, Test compound 1) and the crystalline form A of (S)-N-(1-(2-((4-amino-3-nitrophenyl)amino)-6-propylpyrimidin-4-yl)pyrrolidin-3-yl)acetamide hydrochloride prepared in Example 7 (Test compound 2) were stored under the conditions of 60° C. and 75% RH for 2 weeks. The amounts of each test compound and the deacetylated impurities were analyzed with HPLC so as to measure the respective HPLC purities.

[2] = Storage of the amorphous hydrochloride at room temperature; format: physicochemical; settings: stored at room temperature; in words
Protocol: In addition, WO 2012/115480 has disclosed the step for converting the compound of Formula 1 to a hydrochloride thereof. The converting step comprises reacting the compound of Formula 1 with hydrochloric acid in ethyl acetate, stirring at room temperature for 1 hour, and then filtering the product. It has been found by the present inventors that the hydrochloride of the compound of Formula 1 obtained by said method is in the amorphous form and brings about the problem producing deacetylated impurities in high level when stored at room temperature.

| change in the HPLC purity [1] | change in the amount of deacetylated impurities [1] | HPLC purities, Compound ([1]; Storage time: 1 week) [%] | HPLC purities, Deacetylated impurities ([1]; Storage time: 1 week) [%] | HPLC purities, Compound ([1]; Storage time: 2 weeks) [%] | HPLC purities, Deacetylated impurities ([1]; Storage time: 2 weeks) [%] | HPLC purities, Compound ([1]; Storage time: Initial) [%] | HPLC purities, Deacetylated impurities ([1]; Storage time: Initial) [%] | deacetylated impurities produced on storage [2] | SMILES |
| --- | --- | --- | --- | --- | --- | --- | --- | --- | --- |
| marked decrease | marked increase | 95.5 | 3.78 | 86.6 | 12.7 | 98.7 | 0.58 | high level | CCCc1cc(N2CC[C@H](NC(C)=O)C2)nc(Nc2ccc(N)c([N+](=O)[O-])c2)n1.Cl [Test compound 1, (S)-N-(1-(2-((4-amino-3-nitrophenyl)amino)-6-propylpyrimidin-4-yl)pyrrolidin-3-yl) acetamide hydrochloride] |
| no significant change | no significant change | 99.6 | 0.07 | 99.6 | 0.07 | 99.6 | 0.08 | – | CCCc1cc(N2CC[C@H](NC(C)=O)C2)nc(Nc2ccc(N)c([N+](=O)[O-])c2)n1 [Test compound 2, (S)-N-(1-(2-((4-amino-3-nitrophenyl)amino)-6-propylpyrimidin-4-yl)pyrrolidin-3-yl)acetamide hydrochloride] |
